Assay results taken from patent US9273029B2, “Pyridine-and pyrazine derivatives” (Merck Patent GmbH, priority 2011, dated 2016).

What was measured:
[1] = molecular target: IKKε (Homo sapiens (Human), UniProt Q14164); assay: IKKε kinase assay (384-well Flashplate); assay type: biochemical; details: 10 μM ATP, 2 hours at 30° C.; read-out: IKKε enzyme assay IC50
Description: IKKε—Kinase Assay (IKKepsilon)
The kinase assay is performed either as 384-well Flashplate assay (for e.g. Topcount measurement). 1 nM IKKε, 800 nM biotinylated IκBα(19-42) peptide (Biotin-C6-C6-[…]) SEQ ID NO: 1 and 10 μM ATP (spiked with 0.3 μCi ^33P-ATP/well) are incubated in a total volume of 50 μl (10 mM MOPS, 10 mM Mg-acetat, 0.1 mM EGTA, 1 mM Dithiothreitol,0.02% Brij35, 0.1% BSA, 0.1% BioStab, pH 7.5) with or without test compound for 2 hours at 30° C. The reaction is stopped with 25 μl 200 mM EDTA. After 30 Min at room temperature the liquid is removed and each well washed thrice with 100 μl 0.9% sodium chloride solution. Non-specific reaction is determined in presence of 3 μM MSC2119074 (BX-795). Radioactivity is measured with Topcount (PerkinElmer). Results (e.g. IC50-values) are calculated with program tools provided by the IT-department (e.g. AssayExplorer, Symyx).

[2] = molecular target: TANK binding kinase (TBK1) (Homo sapiens (Human), UniProt Q9UHD2); assay: TBK1 enzyme assay (384-well Flashplate kinase assay); assay type: biochemical; details: 10 μM ATP, 120 Min at 30° C.
Description: The kinase assay is performed as 384-well Flashplate assay (for e.g. Topcount measurement. 0.6 nM TANK binding kinase (TBK1), 800 nM biotinylated MELK-derived peptide (Biotin-Ah-Ah-[…]) SEQ ID NO: 2 and 10 μM ATP (spiked with 0.25 μCi ^33P-ATP/well) are incubated in a total volume of 50 μl (10 mM MOPS, 10 mM Mg-acetat, 0.1 mM EGTA, 1 mM DTT, 0.02% Brij35, 0.1% BSA, pH 7.5) with or without test compound for 120 Min at 30° C. The reaction is stopped with 25 μl 200 mM EDTA. After 30 Min at room temperature the liquid is removed and each well washed thrice with 100 μl 0.9% sodium chloride solution. Nonspecific reaction is determined in presence of 100 nM Staurosporine. Radioactivity is measured in a Topcount (PerkinElmer). Results (e.g. IC50-values) are calculated with program tools provided by the IT-department (e.g. AssayExplorer, Symyx).

Chain of IKKε (Q14164 whole entry): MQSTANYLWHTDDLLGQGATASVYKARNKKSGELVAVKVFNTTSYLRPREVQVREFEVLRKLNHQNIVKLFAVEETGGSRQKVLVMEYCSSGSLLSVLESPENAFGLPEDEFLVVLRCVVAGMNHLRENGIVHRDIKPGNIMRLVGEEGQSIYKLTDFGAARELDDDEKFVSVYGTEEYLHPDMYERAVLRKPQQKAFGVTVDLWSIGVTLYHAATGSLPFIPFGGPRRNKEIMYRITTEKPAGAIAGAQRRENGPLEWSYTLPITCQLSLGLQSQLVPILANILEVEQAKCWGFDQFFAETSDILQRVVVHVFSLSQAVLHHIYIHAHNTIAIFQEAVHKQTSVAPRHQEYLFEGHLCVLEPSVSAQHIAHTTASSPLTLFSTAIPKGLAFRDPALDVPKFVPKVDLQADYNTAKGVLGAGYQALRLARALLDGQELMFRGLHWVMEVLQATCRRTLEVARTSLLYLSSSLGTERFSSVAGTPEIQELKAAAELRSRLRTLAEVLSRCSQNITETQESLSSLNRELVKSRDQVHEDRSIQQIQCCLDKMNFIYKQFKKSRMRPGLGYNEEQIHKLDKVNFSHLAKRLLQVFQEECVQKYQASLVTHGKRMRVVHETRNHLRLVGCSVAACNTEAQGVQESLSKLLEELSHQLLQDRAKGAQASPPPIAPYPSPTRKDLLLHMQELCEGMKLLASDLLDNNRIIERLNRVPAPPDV
Chain of TANK binding kinase (TBK1) (Q9UHD2 whole entry): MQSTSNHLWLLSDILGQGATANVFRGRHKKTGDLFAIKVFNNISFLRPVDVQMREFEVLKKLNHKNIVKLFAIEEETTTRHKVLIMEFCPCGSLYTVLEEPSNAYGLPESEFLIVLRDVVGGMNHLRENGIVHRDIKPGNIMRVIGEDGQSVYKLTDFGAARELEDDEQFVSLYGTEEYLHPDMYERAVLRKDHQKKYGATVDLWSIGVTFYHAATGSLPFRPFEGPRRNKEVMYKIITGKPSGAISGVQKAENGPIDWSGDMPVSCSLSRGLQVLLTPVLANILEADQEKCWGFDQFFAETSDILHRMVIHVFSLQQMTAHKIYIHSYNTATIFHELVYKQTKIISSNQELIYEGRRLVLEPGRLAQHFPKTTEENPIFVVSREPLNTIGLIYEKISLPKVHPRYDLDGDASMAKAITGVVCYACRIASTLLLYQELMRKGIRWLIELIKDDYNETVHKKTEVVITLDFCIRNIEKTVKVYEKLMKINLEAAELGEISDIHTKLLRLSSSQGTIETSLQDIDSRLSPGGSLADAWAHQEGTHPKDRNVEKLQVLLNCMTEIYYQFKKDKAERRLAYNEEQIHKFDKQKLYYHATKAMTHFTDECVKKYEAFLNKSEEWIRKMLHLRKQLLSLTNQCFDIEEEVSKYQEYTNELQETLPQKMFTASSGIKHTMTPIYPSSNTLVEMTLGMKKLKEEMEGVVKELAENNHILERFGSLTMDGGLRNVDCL

SMILES	IC50 [1] [nM]	IC50 [2] [nM]
Nc1ncc(-c2ccc(CN3CCCC3)s2)cc1C(=O)Nc1ccncc1 [Compound A2, 2-Amino-N-pyridin-4-yl-5-(5-pyrrolidin-1-ylmethyl-thiophen-2-yl)-nicotinamide]	110	130
Cc1ccc(-c2cnc(N)c(C(=O)Nc3ccncc3)c2)s1 [Compound A3, 2-Amino-5-(5-methyl-thiophen-2-yl)-N-pyridin-4-yl-nicotinamide]	150	120
Nc1ncc(-c2ccc(S(N)(=O)=O)cc2)cc1C(=O)Nc1ccncc1 [Compound A7, 2-Amino-N-pyridin-4-yl-5-(4-sulfamoyl-phenyl)-nicotinamide]	1800	150
Nc1ncc(-c2ccc(CN3CCOCC3)s2)nc1C(=O)Nc1ccncc1 [Compound A10, 3-Amino-6-(5-morpholin-4-ylmethyl-thiophen-2-yl)-pyrazine-2-carboxylic acid pyridin-4-ylamide]	–	1000
Nc1ncc(-c2cnn(CC3OCCO3)c2)nc1C(=O)Nc1ccncc1 [Compound A12, 3-Amino-6-(1-[1,3]dioxolan-2-ylmethyl-1H-pyrazol-4-yl)-pyrazine-2-carboxylic acid pyridin-4-ylamide]	1000	8300
Nc1ncc(-c2ccc(CN3CCCCC3)s2)nc1C(=O)Nc1ccncc1 [Compound A13, 3-Amino-6-(5-piperidin-1-ylmethyl-thiophen-2-yl)-pyrazine-2-carboxylic acid pyridin-4-ylamide]	1900	4000
Nc1ncc(-c2ccc(CN3CCCC3)s2)nc1C(=O)Nc1ccncc1 [Compound A14, 3-Amino-6-(5-pyrrolidin-1-ylmethyl-thiophen-2-yl)-pyrazine-2-carboxylic acid pyridin-4-ylamide]	1900	4200
Cc1cc(NC(=O)c2cc(-c3csc(CN4CCOCC4)c3)cnc2N)ccn1 [Compound A15, 2-Amino-N-(2-methyl-pyridin-4-yl)-5-(5-morpholin-4-ylmethyl-thiophen-3-yl)-nicotinamide]	2000	670
Nc1ncc(-c2cccc(-n3cccn3)c2)cc1C(=O)Nc1ccnnc1 [Compound A18, 2-Amino-5-(3-pyrazol-1-yl-phenyl)-N-pyridazin-4-yl-nicotinamide]	640	790
Cc1cnccc1NC(=O)c1cc(-c2ccc(-n3cccn3)cc2)cnc1N [Compound A19, 2-Amino-N-(3-methyl-pyridin-4-yl)-5-(4-pyrazol-1-yl-phenyl)-nicotinamide]	2800	1000
COCCn1cc(-c2cnc(N)c(C(=O)Nc3ccnc(C)c3)c2)cn1 [Compound A20, 2-Amino-5-[1-(2-methoxy-ethyl)-1H-pyrazol-4-yl]-N-(2-methyl-pyridine-4-yl)-nicotinamide]	610	1200
COCCn1cc(-c2cnc(N)c(C(=O)Nc3ccncc3C)c2)cn1 [Compound A22, 2-Amino-5-[1-(2-methoxy-ethyl)-1H-pyrazol-4-yl]-N-(3-methyl-pyridin-4-yl)-nicotinamide]	2400	690
Cc1ccc(-c2cccc(-c3cnc(N)c(C(=O)Nc4ccncc4)c3)c2)cc1 [Compound A23, 2-Amino-5-(4′-methyl-biphenyl-3-yl)-N-pyridin-4-yl-nicotinamide]	2200	7400
COCCn1cc(-c2cnc(N)c(C(=O)Nc3ccnnc3)c2)cn1 [Compound A24, 2-Amino-5-[1-(2-methoxy-ethyl)-1H-pyrazol-4-yl]-N-pyridazin-4-yl-nicotinamide]	890	1200
NC(=O)Cn1cc(-c2cnc(N)c(C(=O)Nc3ccncc3)c2)cn1 [Compound A25, 2-Amino-5-(1-carbamoylmethyl-1H-pyrazol-4-yl)-N-pyridin-4-yl-nicotinamide]	530	360
Cc1cc(NC(=O)c2cc(-c3ccc(CN4CCOCC4)s3)cnc2N)cc(C)n1 [Compound A26, 2-Amino-N-(2,6-dimethyl-pyridin-4-yl)-5-(5-morpholin-4-ylmethyl-thiophen-2-yl)-nicotinamide]	5200	8200
Nc1ncc(-c2ccc(CN3CCOCC3)s2)cc1C(=O)Nc1ccncn1 [Compound A27, 2-Amino-5-(5-morpholin-4-ylmethyl-thiophen-2-yl)-N-pyrimidin-4-yl-nicotinamide]	2600	810

SMILES	IC50 [1] [nM]	IC50 [2] [nM]
COCCn1cc(-c2cnc(N)c(C(=O)Nc3ccnc4ccoc34)c2)cn1 [Compound A28, 2-Amino-N-furo[3,2-b]pyridin-7-yl-5-[1-(2-methoxy-ethyl)-1H-pyrazol-4-yl]-nicotinamide]	2900	1200
Nc1ncc(-c2ccc(CN3CCOCC3)s2)cc1C(=O)Nc1ccnc2ccoc12 [Compound A29, 2-Amino-N-furo[3,2-b]pyridin-7-yl-5-(5-morpholin-4-ylmethyl-thiophen-2-yl)-nicotinamide]	2400	890
COC(=O)c1ccc(-c2cnc(N)c(C(=O)Nc3ccncc3)c2)cc1 [Compound A30, 4-[6-Amino-5-(pyridin-4-ylcarbamoyl)-pyridin-3-yl]-benzoic acid methyl ester]	1900	1600
Nc1ncc(-c2ccc(C(=O)O)cc2)cc1C(=O)Nc1ccncc1 [Compound A31, 4-[6-Amino-5-(pyridin-4-ylcarbamoyl)-pyridin-3-yl]-benzoic acid]	990	400
Nc1ncc(-c2ccc(CCC(=O)O)cc2)cc1C(=O)Nc1ccncc1 [Compound A32, 3-{4-[6-Amino-5-(pyridin-4-ylcarbamoyl)-pyridin-3-yl]-phenyl}-propionic acid]	600	250
Nc1ncc(-c2ccc(CN3CCOCC3)s2)cc1C(=O)Nc1ccncc1Cl [Compound A33, 2-Amino-N-(3-chloro-pyridin-4-yl)-5-(5-morpholin-4-ylmethyl-thiophen-2-yl)-nicotinamide]	600	250
Nc1ncc(-c2cn[nH]c2)cc1C(=O)Nc1ccncc1 [Compound A34, 2-Amino-5-(1H-pyrazol-4-yl)-N-pyridin-4-yl-nicotinamide]	740	280
COC(=O)c1cnccc1NC(=O)c1cc(-c2ccc(CN3CCOCC3)s2)cnc1N [Compound A35, 4-{[2-Amino-5-(5-morpholin-4-ylmethyl-thiophen-2-yl)-pyridine-3-carbonyl]-amino}-nicotinic acid methyl ester]	–	450
CC(=O)Nc1cc(NC(=O)c2cc(-c3ccc(CN4CCOCC4)s3)cnc2N)ccn1 [Compound A36, N-(2-Acetylamino-pyridin-4-yl)-2-amino-5-(5-morpholin-4-ylmethyl-thiophen-2-yl)-nicotinamide]	540	190
COCCn1cc(-c2cnc(N)c(C(=O)Nc3ccncc3Cl)c2)cn1 [Compound A38, 2-Amino-N-(3-chloro-pyridin-4-yl)-5-[1-(2-methoxy-ethyl-)-1H-pyrazol-4-yl]nicotinamide]	1500	740
COc1ccc(NC(=O)c2cc(-c3ccc(CN4CCOCC4)s3)cnc2N)cc1 [Compound A39, 2-Amino-N-(4-methoxy-phenyl)-5-(5-morpholin-4-ylmethyl-thiophen-2-yl)-nicotinamide]	390	910
Nc1ncc(-c2cnn(CCO)c2)cc1C(=O)Nc1ccncc1 [Compound A42, 2-Amino-5-[1-(2-hydroxy-ethyl)-1H-pyrazol-4-yl]-N-pyridin-4-yl-nicotinamide]	1700	670
Nc1ncc(-c2csc(CN3CCOCC3)c2)cc1C(=O)Nc1ccncc1 [Compound A43, 2-Amino-5-(5-morpholin-4-ylmethyl-thiophen-3-yl)-N-pyridin-4-yl-nicotinamide]	330	140
CC(=O)c1c[nH]c(-c2cnc(N)c(C(=O)Nc3ccncc3)c2)c1 [Compound A44, 5-(4-Acetyl-1H-pyrrol-2-yl)-2-amino-N-pyridin-4-yl-nicotinamide]	420	240
Cn1cccc1-c1cnc(N)c(C(=O)Nc2ccncc2)c1 [Compound A50, 2-Amino-5-(1-methyl-1H-pyrrol-2-yl)-N-pyridin-4-yl-nicotinamide]	–	320
Nc1ncc(-c2cc3ccccc3s2)cc1C(=O)Nc1ccncc1 [Compound A52, 2-Amino-5-benzo[b]thiophen-2-yl-N-pyridin-4-yl-nicotinamide]	–	630
Nc1ncc(-c2cc3ccccc3[nH]2)cc1C(=O)Nc1ccncc1 [Compound A55, 2-Amino-5-(1H-indol-2-yl)-N-pyridin-4-yl-nicotinamide]	–	390
